# Measurements taken from patent US8362065B2, “Carbazole carboxamide compounds useful as kinase inhibitors” (Bristol-Myers Squibb Company, priority 2008, dated 2013).
# Counter-ions that a name gives are not always drawn.
# Target: T1, human recombinant Btk (Homo sapiens, UniProt Q06187)
# T1 construct: purchased Invitrogen Corporation
# Assay: Human Recombinant Btk Enzyme Assay
# Format: biochemical
# Conditions: human recombinant Btk 1 nM, ATP 20 μM, 60 min at room temperature; read-out: IC50 for Inhibition of Btk
# T1 sequence (Q06187 whole entry): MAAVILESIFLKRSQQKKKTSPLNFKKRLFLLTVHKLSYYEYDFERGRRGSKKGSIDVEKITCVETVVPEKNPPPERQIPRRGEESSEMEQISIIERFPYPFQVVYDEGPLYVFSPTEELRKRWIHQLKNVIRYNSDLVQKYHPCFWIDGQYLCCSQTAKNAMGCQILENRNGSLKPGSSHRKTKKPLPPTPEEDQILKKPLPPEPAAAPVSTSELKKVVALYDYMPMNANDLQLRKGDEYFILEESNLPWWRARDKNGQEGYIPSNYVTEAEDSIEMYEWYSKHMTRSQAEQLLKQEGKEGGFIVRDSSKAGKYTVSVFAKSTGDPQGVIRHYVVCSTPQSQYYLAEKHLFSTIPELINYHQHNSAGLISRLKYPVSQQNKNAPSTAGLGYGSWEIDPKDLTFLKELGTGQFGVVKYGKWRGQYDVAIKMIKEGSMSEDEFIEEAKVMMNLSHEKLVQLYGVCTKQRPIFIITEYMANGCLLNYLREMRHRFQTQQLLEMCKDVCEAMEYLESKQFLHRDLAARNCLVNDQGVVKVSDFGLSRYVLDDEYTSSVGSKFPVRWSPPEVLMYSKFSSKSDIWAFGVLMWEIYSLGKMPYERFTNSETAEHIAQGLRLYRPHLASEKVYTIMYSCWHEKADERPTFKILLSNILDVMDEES
row,SMILES,IC50
1,"CN1CCN(C(=O)c2ccc3c(c2)[nH]c2c(C(N)=O)ccc(N4CCC[C@@H](N)C4)c23)CC1 [Example 17-1, (R)-4-(3-aminopiperidin-1-yl)-7-(4-methylpiperazine-1-carbonyl)-9H-carbazole-1-carboxamide]",1.1 µM
2,"Cc1c(NC(=O)c2nccn2C)cccc1-c1ccc(C(N)=O)c2[nH]c3cc(NC(=O)NC(C)C)ccc3c12 [Example 60-1, 7-(3-isopropylureido)-4-(2-methyl-3-(1-methyl-1H-imidazole-2-carboxamido)phenyl)-9H-carbazole-1-carboxamide]",0.018 µM
3,CN1CCN(C(=O)c2ccc3c(c2)[nH]c2c(C(N)=O)ccc(-c4cccc(-c5ccccc5)c4)c23)CC1 [Example 3-48],0.39 µM
4,"CN1CCN(C(=O)c2ccc3c(c2)[nH]c2c(C(N)=O)ccc(-c4cc(F)ccc4F)c23)CC1 [Example 2-12, 4-(2,5-difluorophenyl)-7-(4-methylpiperazine-1-carbonyl)-9H-carbazole-1-carboxamide]",0.016 µM
5,"Cc1c(-c2ccc(C(N)=O)c3[nH]c4c(c23)CCC(CO)C4)cccc1N1C(=O)c2ccc(C(C)(C)C)cc2C1=O (stereo not drawn) [Example 31-2, 5-(3-(5-tert-butyl-1,3-dioxoisoindolin-2-yl)-2-methylphenyl)-2-(hydroxymethyl)-2,3,4,9-tetrahydro-1H-carbazole-8-carboxamide]",0.7 µM
6,"CN1CCN(C(=O)C2CCc3c([nH]c4c(C(N)=O)ccc(Br)c34)C2)CC1 (stereo not drawn) [Example 1-3, 5-bromo-2-(4-methylpiperazine-1-carbonyl)-2,3,4,9-tetrahydro-1H-carbazole-8-carboxamide]",0.49 µM
7,"CN1CCN(C(=O)c2ccc3c(c2)[nH]c2c(C(N)=O)ccc(-c4nccc5ccccc45)c23)CC1 [Example 2-2, 4-(isoquinolin-1-yl)-7-(4-methylpiperazine-1-carbonyl)-9H-carbazole-1-carboxamide]",1.3 µM
8,"Cc1c(-c2ccc(C(N)=O)c3[nH]c4c(c23)CCC(C(C)(C)O)C4)cccc1-n1c(C)nc2ccccc2c1=O (stereo not drawn) [Example 76-10, 2-(2-hydroxypropan-2-yl)-5-(2-methyl-3-(2-methyl-4-oxoquinazolin-3(4H)-yl)phenyl)-2,3,4,9-tetrahydro-1H-carbazole-8-carboxamide]",0.018 µM
9,"CN1CCN(C(=O)c2ccc3[nH]c4c(C(N)=O)ccc(-c5ccccc5F)c4c3c2)CC1 [Example 2-18, 4-(2-fluorophenyl)-6-(4-methylpiperazine-1-carbonyl)-9H-carbazole-1-carboxamide]",0.016 µM
10,"Cc1c(-c2ccc(C(N)=O)c3[nH]c4cc(C(=O)N5CCN(C)CC5)ccc4c23)cccc1N1CCCS1(=O)=O [Example 12-1, 4-(3-(1,1-dioxoisothiazolidin-2-yl)-2-methylphenyl)-7-(4-methylpiperazine-1-carbonyl)-9H-carbazole-1-carboxamide]",0.018 µM
11,"Cc1c(-c2ccc(C(N)=O)c3[nH]c4cc(C(=O)N5CCN(C)CC5)ccc4c23)cccc1N(C(C)C)S(C)(=O)=O (single isomer, unassigned) [Example 10-2, 4-(3-(N-isopropylmethylsulfonamido)-2-methylphenyl)-7-(4-methylpiperazine-1-carbonyl)-9H-carbazole-1-carboxamide]",4.5 µM
12,Cc1c(NC(=O)c2nc(C(C)C)cs2)cccc1-c1ccc(C(N)=O)c2[nH]c3cc(C(=O)N4CCN(C)CC4)ccc3c12 [Example 5-16],0.018 µM
13,"CN1CCN(C(=O)c2ccc3c(c2)[nH]c2c(C(N)=O)ccc(-c4cccc5[nH]c(C(=O)Nc6ccc(F)cc6)cc45)c23)CC1 [Example 2-25, 4-(2-(4-fluorophenylcarbamoyl)-1H-indol-4-yl)-7-(4-methylpiperazine-1-carbonyl)-9H-carbazole-1-carboxamide]",3.1 µM
14,"CN1CCN(C(=O)c2ccc3c(c2)[nH]c2c(C(N)=O)ccc(-c4cc(NC(=O)c5ccc(F)cc5)ccn4)c23)CC1 [Example 2-43, 4-(4-(4-fluorobenzamido)pyridin-2-yl)-7-(4-methylpiperazine-1-carbonyl)-9H-carbazole-1-carboxamide]",0.52 µM
15,CC(C)(C)OC(=O)n1cc(-c2ccc(C(N)=O)c3[nH]c4c(c23)CCC(C(=O)NC2CCOCC2)C4)cn1 (stereo not drawn) [Example 3-116],1.6 µM
16,"Cc1nc(N)sc1-c1ccc(C(N)=O)c2[nH]c3c(c12)CCC(C(=O)NC1CCOCC1)C3 (stereo not drawn) [Example 4-3, 5-(2-amino-4-methylthiazol-5-yl)-N^2-(tetrahydro-2H-pyran-4-yl)-2,3,4,9-tetrahydro-1H-carbazole-2,8-dicarboxamide]",0.39 µM
17,CN1CCN(C(=O)c2ccc3c(c2)[nH]c2c(C(N)=O)ccc(-c4cccc5c4oc4ccccc45)c23)CC1 [Example 3-49],0.69 µM
18,"Cc1c(NC(=O)CC(C)C)cccc1-c1ccc(C(N)=O)c2[nH]c3cc(C(=O)N4CCN(C)CC4)ccc3c12 [Example 5-62, 4-(2-methyl-3-(3-methylbutanamido)phenyl)-7-(4-methylpiperazine-1-carbonyl)-9H-carbazole-1-carboxamide (prepared as the TFA salt)]",0.017 µM
19,Cc1c(-c2ccc(C(N)=O)c3[nH]c4c(c23)CCC(C(=O)N2CCN(C)CC2)C4)cccc1N1Cc2ccccc2C1=O (stereo not drawn) [Example 3-122],0.018 µM
20,"Cc1c(NC(=O)c2ccc(F)cc2)cccc1-c1ccc(C(N)=O)c2[nH]c3cc(N(Cc4ccccc4)Cc4ccccc4)ccc3c12 [Example 54-7, 7-(dibenzylamino)-4-(3-(4-fluorobenzamido)-2-methylphenyl)-9H-carbazole-1-carboxamide]",0.83 µM
21,Cc1nc(NC(=O)c2ccccc2)sc1-c1ccc(C(N)=O)c2[nH]c3c(c12)CCC(C(=O)NC1CCOCC1)C3 (stereo not drawn) [Example 5-86],0.91 µM
22,"Cc1ccc2c(c1)CN(c1cncc(-c3ccc(C(N)=O)c4[nH]c5cc(NC(C)C)ccc5c34)c1C)C2=O [Example 66-2, 7-(isopropylamino)-4-(4-methyl-5-(5-methyl-1-oxoisoindolin-2-yl)pyridin-3-yl)-9H-carbazole-1-carboxamide]",0.016 µM
23,CN1CCN(C(=O)c2ccc3c(c2)[nH]c2c(C(N)=O)ccc(-c4ccccc4)c23)CC1 [Example 3-45],0.016 µM
24,"CC(=O)OCC1CCc2c([nH]c3c(C(N)=O)ccc(-c4cccc(N5C(=O)c6ccc(C(C)(C)C)cc6C5=O)c4C)c23)C1 (stereo not drawn) [Example 31-3, (5-(3-(5-tert-butyl-1,3-dioxoisoindolin-2-yl)-2-methylphenyl)-8-carbamoyl-2,3,4,9-tetrahydro-1H-carbazol-2-yl)mEtOAc]",1.5 µM

# Now from value to molecule:
row,IC50,SMILES
1,0.0013 µM,"Cc1c(-c2ccc(C(N)=O)c3[nH]c4cc(C(C)(C)O)ccc4c23)cccc1-n1ccn2ccnc2c1=O [Example 76-2, 7-(2-hydroxypropan-2-yl)-4-(2-methyl-3-(8-oxoimidazo[1,2-a]pyrazin-7(8 H)-yl)phenyl)-9H-carbazole-1-carboxamide]"
2,0.016 µM,CCOc1ccc(F)c(-c2ccc(C(N)=O)c3[nH]c4cc(C(=O)N5CCN(C)CC5)ccc4c23)c1 [Example 3-39]
3,0.015 µM,Cc1c(NC(=O)C2(c3ccc(F)cc3)CC2)cccc1-c1ccc(C(N)=O)c2[nH]c3cc(C(=O)N4CCN(C)CC4)ccc3c12 [Example 5-42]
4,0.015 µM,"Cc1c(Nc2nccc3ccccc23)cccc1-c1ccc(C(N)=O)c2[nH]c3cc(C(=O)N4CCN(C)CC4)ccc3c12 [Example 11-1, 4-(3-(isoquinolin-1-ylamino)-2-methylphenyl)-7-(4-methylpiperazine-1-carbonyl)-9H-carbazole-1-carboxamide]"
5,0.015 µM,"Cc1c(NC(=O)c2ccc(F)cc2)cccc1-c1ccc(C(N)=O)c2[nH]c3cc(C(=O)N4CCN(CCO)CC4)ccc3c12 [Example 24-17, 4-(3-(4-fluorobenzamido)-2-methylphenyl)-7-(4-(2-hydroxyethyl)piperazine-1-carbonyl)-9H-carbazole-1-carboxamide (prepared as the TFA salt)]"
6,0.0022 µM,Cc1c(NC(=O)c2ccc(F)cc2)cccc1-c1ccc(C(N)=O)c2[nH]c3cc(C(O)CO)ccc3c12 (racemic) [Example 70-2]
7,0.0019 µM,Cc1c(-c2ccc(C(N)=O)c3[nH]c4cc(C(C)(C)O)ccc4c23)cccc1-n1ccn2c(C)cnc2c1=O [Example 81-3]
8,0.0022 µM,Cc1c(-c2ccc(C(N)=O)c3[nH]c4cc(C(C)(C)O)ccc4c23)cccc1N1CCc2cc(F)ccc2C1=O [Example 81-20]
9,0.0017 µM,Cc1c(NC(=O)c2ccc(F)cc2)cccc1-c1ccc(C(N)=O)c2[nH]c3cc(CN4CCCC4)ccc3c12 [Example 39-4]
10,0.0021 µM,"CC(=O)NCc1ccc2c(c1)[nH]c1c(C(N)=O)ccc(-c3cccc(N4Cc5ccc(F)cc5C4=O)c3C)c12 [Example 38-2, 7-(acetamidomethyl)-4-(3-(6-fluoro-1-oxoisoindolin-2-yl)-2-methylphenyl)-9H-carbazole-1-carboxamide]"
11,0.0014 µM,"Cc1ccc2c(c1)C(=O)N(c1cccc(-c3ccc(C(N)=O)c4[nH]c5cc(C(O)CO)ccc5c34)c1C)C2 (stereo not drawn) [Example 70-11, 7-(1,2-dihydroxyethyl)-4-(2-methyl-3-(6-methyl-1-oxoisoindolin-2-yl)phenyl)-9H-carbazole-1-carboxamide]"
12,0.0014 µM,"Cc1ccc2c(c1)C(=O)N(c1cccc(-c3ccc(C(N)=O)c4[nH]c5cc(C(COC(=O)C(C)N)OC(=O)C(C)N)ccc5c34)c1C)C2 (stereo not drawn) [Example 83-3, 1-(8-carbamoyl-5-(2-methyl-3-(6-methyl-1-oxoisoindolin-2-yl)phenyl)-9H-carbazol-2-yl)ethane-1,2-diylbis(2-aminopropanoate)]"
13,0.0019 µM,"Cc1c(-c2ccc(C(N)=O)c3[nH]c4cc(CN)ccc4c23)cccc1N1Cc2ccccc2C1=O [Example 33-1, 7-(aminomethyl)-4-(2-methyl-3-(1-oxoisoindolin-2-yl)phenyl)-9H-carbazole-1-carboxamide]"
14,0.0011 µM,"Cc1ccc2c(c1)C(=O)N(c1cccc(-c3ccc(C(N)=O)c4[nH]c5cc(C(O)COC(=O)C(C)N)ccc5c34)c1C)C2 (stereo not drawn) [Example 83-4, 2-(8-carbamoyl-5-(2-methyl-3-(6-methyl-1-oxoisoindolin-2-yl)phenyl)-9H-carbazol-2-yl)-2-hydroxyethyl 2-aminopropanoate]"
15,0.015 µM,CN1CCN(C(=O)c2ccc3c(c2)[nH]c2c(C(N)=O)ccc(-c4ccccc4Cl)c23)CC1 [Example 3-69]
